Patent publication US20140023611A1 (priority 2010, published 2014)

Molecular target: T1, rat NaP2b (SLC34A2) (Rattus norvegicus, UniProt Q9JJ09)
T1 construct: host or cells: HEK293
T1 sequence (Q9JJ09 1-695): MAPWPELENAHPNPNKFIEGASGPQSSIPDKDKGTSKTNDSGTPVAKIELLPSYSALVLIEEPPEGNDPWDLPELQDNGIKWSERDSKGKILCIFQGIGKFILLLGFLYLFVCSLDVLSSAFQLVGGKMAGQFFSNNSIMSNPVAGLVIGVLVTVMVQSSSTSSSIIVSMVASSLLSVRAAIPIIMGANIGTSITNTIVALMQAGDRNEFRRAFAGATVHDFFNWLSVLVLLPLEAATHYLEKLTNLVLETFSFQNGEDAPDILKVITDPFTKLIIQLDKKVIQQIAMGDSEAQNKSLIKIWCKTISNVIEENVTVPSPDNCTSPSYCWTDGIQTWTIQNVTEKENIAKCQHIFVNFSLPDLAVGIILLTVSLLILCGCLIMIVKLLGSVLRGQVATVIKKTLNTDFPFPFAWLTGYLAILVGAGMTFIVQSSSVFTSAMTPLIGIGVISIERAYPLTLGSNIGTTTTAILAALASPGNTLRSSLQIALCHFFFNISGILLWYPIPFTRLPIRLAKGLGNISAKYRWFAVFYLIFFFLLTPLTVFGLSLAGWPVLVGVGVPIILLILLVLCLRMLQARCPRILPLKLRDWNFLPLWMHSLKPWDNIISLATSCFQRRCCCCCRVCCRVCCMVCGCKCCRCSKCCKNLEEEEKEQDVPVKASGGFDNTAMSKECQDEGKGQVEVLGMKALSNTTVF
Test: Inhibition of NaP2b-mediated Pi (33P) uptake in transfected HEK293 cells, rat NaP2b
Assay type: cell-based
Conditions: 33P Pi uptake, 0.1 mM phosphate, value given as pIC50 range
Description: HEK293 cells were obtained from the American Type Culture collection and propagated per their instructions. […] The sequence of the human protein was mutated to insert a threonine after residue 37, and to introduce a N39D mutation.
Cells were seeded into 96-well plates at 25,000 cells/well and cultured overnight. Lipofectamine 2000 (Invitrogen) was used to introduce the NaP2b cDNA, and the cells were allowed to approach confluence during a second overnight incubation. […] Each compound was tested at twelve concentrations ranging from 0.1 nM to 30 uM. Assays were run in duplicate.
Cells were lysed by addition of 20 μL 0.1% Tween 80 followed by 100 μL scintillation fluid, and counted using a TopCount (Perkin Elmer).
pIC50 (the negative log of the IC50) values of the test compounds were calculated using GraphPad Prism.

Compound	IC50 [µM]
O=C(O)CCSCc1cccc(C(=O)Nc2ccc(N3CCCCC3)cc2-c2cc(Nc3cccc(C(F)(F)F)c3)ccn2)c1 [Example 72, 3-((3-((4-(Piperidin-1-yl)-2-(4-((3-(trifluoromethyl)phenyl)amino)pyridin-2-yl)phenyl)carbamoyl)benzyl)thio)propanoic acid]	10 to 31.6
CN(CCN1CCOCC1)C(=O)c1cccc(C(=O)Nc2ccc(N3CCC[C@H]4CCCC[C@@H]43)cc2-c2cc(C(=O)NCc3cccc(C(F)(F)F)c3)ccn2)c1 [Example 114]	1 to 7.94
COCCN(CCOC)CCN(C)C(=O)c1cccc(C(=O)Nc2ccc(N3CCCCC3)cc2-c2cc(C(=O)N[C@H]3CCCc4ccccc43)ccn2)c1 [Example 217, (S)—N1-(2-(bis(2-methoxyethyl)amino)ethyl)-N1-methyl-N3-(4-(piperidin-1-yl)-2-(4-(1,2,3,4-tetrahydronaphthalen-1-ylcarbamoyl)pyridin-2-yl)phenyl)isophthalamide]	< 1
Cc1ccc(Nc2ccnc(-c3cc(N4CCCCC4)ccc3NC(=O)c3cccc(CSCCC(=O)O)c3)c2)cc1C [Example 71, 3-((3-((2-(4-((3,4-Dimethylphenyl)amino)pyridin-2-yl)-4-(piperidin-1-yl)phenyl)carbamoyl)benzyl)thio)propanoic acid]	10 to 31.6
CN(CCN1CCOCC1)C(=O)c1cccc(C(=O)Nc2ccc(N3CCCCC3)cc2-c2cc(NCc3cccc(C(F)(F)F)c3)ccn2)c1 [Example 104]	10 to 31.6
CN(CCN1CCOCC1)C(=O)c1cccc(C(=O)Nc2ccc(N3CC[C@H]4CCCC[C@@H]4C3)cc2-c2cc(C(=O)NCc3cccc(C(F)(F)F)c3)ccn2)c1 [Example 111]	10 to 31.6
CC(=O)NC1CCN(C(=O)c2cccc(C(=O)Nc3ccc(N4CCCCC4)cc3-c3cc(C(=O)NCc4cccc(C(F)(F)F)c4)ccn3)c2)CC1 [Example 4.7, 2-(2-(3-(4-Acetamidopiperidine-1-carbonyl)benzamido)-5-(piperidin-1-yl)phenyl)-N-(3-(trifluoromethyl)benzyl)isonicotinamide]	10 to 31.6
CCN(CC)c1ccc(NC(=O)c2cccc(C(=O)N(C)CCN(C)CCOCCOCCOCCNC(N)=O)c2)c(-c2cc(C(=O)N[C@H]3CCCc4ccccc43)ccn2)c1 [Example 224, (S)—N1-(1-amino-14-methyl-1-oxo-5,8,11-trioxa-2,14-diazahexadecan-16-yl)-N3-(4-(diethylamino)-2-(4-(1,2,3,4-tetrahydronaphthalen-1-ylcarbamoyl)pyridin-2-yl)phenyl)-N1-methylisophthalamide]	1 to 7.94
O=C(O)CCSCc1cccc(C(=O)Nc2ccc(N3CCCCC3)cc2-c2cc(NC(=O)c3cccc(C(F)(F)F)c3)ccn2)c1 [Example 73, 3-((3-((4-(Piperidin-1-yl)-2-(4-(3-(trifluoromethyl)benzamido)pyridin-2-yl)phenyl)carbamoyl)benzyl)thio)propanoic acid]	10 to 31.6
CCN(CC)c1ccc(NC(=O)c2cccc(CCCOCCOCCOCCOCCC(=O)N(C)CCOCCOCCOCCOCCOCCOCCOC)c2)c(-c2cc(C(=O)NCc3cccc(C(F)(F)F)c3)ccn2)c1 [Example 259, 2-(5-(diethylamino)-2-(3-(23-methyl-24-oxo-2,5,8,11,14,17,20,27,30,33,36-undecaoxa-23-azanonatriacontan-39-yl)benzamido)phenyl)-N-(3-(trifluoromethyl)benzyl)isonicotinamide]	1 to 7.94
COCCN(C)CCN(C)C(=O)c1cccc(C(=O)Nc2ccc(N3CCCCC3)cc2-c2cc(C(=O)NCc3cccc(C(F)(F)F)c3)ccn2)c1 [Example 4.20.2, N1-(2-((2-Methoxyethyl)(methyl)amino)ethyl)-N1-methyl-N3-(4-(piperidin-1-yl)-2-(4-((3-(trifluoromethyl)benzyl)carbamoyl)pyridin-2-yl)phenyl)isophthalamide]	1 to 7.94
CCN(CC)c1ccc(NC(=O)c2cccc(CCCOCCOCCOCC[N+](CC)(CC)CC)c2)c(-c2cc(C(=O)NCc3cccc(C(F)(F)F)c3)ccn2)c1 [Example 330, 2-(2-(2-(3-(3-(4-(diethylamino)-2-(4-(3-(trifluoromethyl)benzylcarbamoyl)pyridin-2-yl)phenylcarbamoyl)phenyl)propoxy)ethoxy)ethoxy)-N,N,N-triethylethanaminium]	1 to 7.94
O=C(O)CCNC(=O)Cc1cccc(SCc2cccc(C(=O)Nc3ccc(N4CCCCC4)cc3-c3cc(C(=O)NCc4cccc(C(F)(F)F)c4)ccn3)c2)c1 [Example 140]	1 to 7.94
CN(CCOCCOCCOCCC(=O)O)C(=O)c1cccc(SCc2cccc(C(=O)Nc3ccc(N4CCCCC4)cc3-c3cc(C(=O)NCc4cccc(C(F)(F)F)c4)ccn3)c2)c1 [Example 135, 3-(2-(2-(2-(N-methyl-3-(3-(4-(piperidin-1-yl)-2-(4-(3-(trifluoromethyl)benzylcarbamoyl)pyridin-2-yl)phenylcarbamoyl)benzylthio)benzamido)ethoxy)ethoxy)ethoxy)propanoic acid]	1 to 7.94
O=C(O)CCSCc1cccc(C(=O)Nc2ccc(N3CCCCC3)cc2-c2cc(C(=O)NCc3cccc4ccccc34)ccn2)c1 [Example 1.12]	1 to 7.94
CN1CCC(N(C)C(=O)c2cccc(SCc3cccc(C(=O)Nc4ccc(N5CCCCC5)cc4-c4cc(C(=O)NCc5cccc(C(F)(F)F)c5)ccn4)c3)c2)CC1 [Example 10.2]	10 to 31.6
O=C(O)CCCC1CCN(C(=O)c2cccc(C(=O)Nc3ccc(N4CCCCC4)cc3-c3cc(C(=O)NCc4cccc(C(F)(F)F)c4)ccn3)c2)CC1 [Example 112]	1 to 7.94
CCN(CC)c1ccc(NC(=O)c2cccc(CCCOCCOCCOCCOCCNC(=O)c3cccnc3)c2)c(-c2cc(C(=O)N[C@H]3CCCc4ccccc43)ccn2)c1 [Example 324]	< 1
CCN(CC)c1ccc(NC(=O)c2cccc(C(=O)N(C)CCN(C)CCOCCOCCOCCNC(=O)N(CCO)CCO)c2)c(-c2cc(C(=O)N[C@H]3CCCc4ccccc43)ccn2)c1 [Example 225, (S)—N1-(4-(diethylamino)-2-(4-(1,2,3,4-tetrahydronaphthalen-1-ylcarbamoyl)pyridin-2-yl)phenyl)-N3-(1-hydroxy-3-(2-hydroxyethyl)-17-methyl-4-oxo-8,11,14-trioxa-3,5,17-triazanonadecan-19-yl)-N3-methylisophthalamide]	10 to 31.6

Results, then the molecule that gave them:

IC50 [µM]	Compound
1 to 7.94	CN(CCN1CCOCC1)C(=O)c1cccc(C(=O)Nc2ccc(N3CCSCC3)cc2-c2cc(C(=O)NCc3cccc(C(F)(F)F)c3)ccn2)c1 [Example 118]
1 to 7.94	CC(=O)N[C@@H]1CCN(Cc2cccc(C(=O)Nc3ccc(N4CCCCC4)cc3-c3cc(C(=O)NCc4cccc(C(F)(F)F)c4)ccn3)n2)C1 [Example 55, (R)-6-((3-Acetamidopyrrolidin-1-yl)methyl)-N-(4-(piperidin-1-yl)-2-(4-((3-(trifluoromethyl)benzyl)carbamoyl)pyridin-2-yl)phenyl)picolinamide 2,2,2-trifluoroacetate]
1 to 7.94	O=C(O)CCSCc1cccc(C(=O)Nc2ccc(N3CCCCC3)cc2-c2cc(C(=O)NCc3ccccc3C(F)(F)F)ccn2)c1 [Example 1.48]
10 to 31.6	O=C(O)CCSCc1cccc(C(=O)Nc2ccc(N3CCCCC3)cc2-c2cc(NCCc3cccc(C(F)(F)F)c3)ncn2)c1 [Example 3.3, 3-((3-((4-(Piperidin-1-yl)-2-(6-((3-(trifluoromethyl)phenethyl)amino)pyrimidin-4-yl)phenyl)carbamoyl)benzyl)thio)propanoic acid]
1 to 7.94	O=C(O)CCSCc1cccc(C(=O)Nc2ccc(N3CCCCC3)cc2-c2cc(C(=O)NC3CCc4ccccc43)ccn2)c1 (centres unmarked) [Example 1.34]
1 to 7.94	Cc1cccc(CNC(=O)c2ccnc(-c3cc(N4CCCCC4)ccc3NC(=O)c3cccc(CSCCC(=O)O)c3)c2)c1 [Example 1.46]
10 to 31.6	O=C(O)CCSCc1cccc(C(=O)Nc2ccc(N3CCCCC3)cc2-c2cc(OCc3cccc(C(F)(F)F)c3)ncn2)c1 [Example 3.8, 3-((3-((4-(Piperidin-1-yl)-2-(6-((3-(trifluoromethyl)benzyl)oxy)pyrimidin-4-yl)phenyl)carbamoyl)benzyl)thio)propanoic acid]
10 to 31.6	O=C(NCc1cccc(C(F)(F)F)c1)c1ccnc(-c2cc(N3CCCCC3)ccc2NC(=O)c2cccc(CSCCCS(=O)(=O)O)c2)c1 [Example 91]
< 1	CCN(CC)c1ccc(NC(=O)c2cccc(CCCOCCOCCOCCOCCNC(=O)c3ccc(O)cc3)c2)c(-c2cc(C(=O)N[C@H]3CCCc4ccccc43)ccn2)c1 [Example 325]
10 to 31.6	O=C(O)CCSCc1cccc(C(=O)Nc2ccc(N3CCCCC3)cc2-c2cc(NCCc3cccc(C(F)(F)F)c3)ccn2)c1 [Example 70, 3-((3-((4-(Piperidin-1-yl)-2-(4-((3-(trifluoromethyl)phenethyl)amino)pyridin-2-yl)phenyl)carbamoyl)benzyl)thio)propanoic acid]
